Assay: Gravimetric vapour sorption (GVS) analysis, water sorption/desorption at different relative humidities
Assay type: physicochemical
Conditions: across the 0-90% relative humidity range at 25° C. under nitrogen

CC(C)N1CCCN(C(=O)c2ccc(OC3CCOCC3)cc2)CC1.Cl [Drug Preparation Example 1 Part C, 1-isopropyl-4-{[4-(tetrahydro-2H-pyran-4-yloxy)phenyl]carbonyl}hexahydro-1H-1,4-diazepine hydrochloride]
water adsorbed and/or absorbed, and/or desorbed (GVS), compared with crystalline Form 1 mono-maleate (sample before purification by recrystallisation, data not shown): higher quantities of water

CC(C)N1CCCN(C(=O)c2ccc(OC3CCOCC3)cc2)CC1.O=C(O)/C=C\C(=O)O [Drug Preparation Example 3, 1-Isopropyl-4-{[4-(tetrahydro-2H-pyran-4-yloxy)phenyl]carbonyl}hexahydro-1H-1,4-diazepine mono-maleate salt (crystalline Form 1)]
water reversibly adsorbed and/or absorbed, and/or desorbed (GVS): approximately 0.4 % w/w

Reference: patent US20110189280A1, “DOSAGE FORM COMPRISING 1-ISOPROPYL-4-HEXAHYDRO-1H-1,4-DIAZEPINE OR A SALT THEREOF” (priority 2008, published 2011)
